For one data set, the system named is HIF-1α and HIF-2α. The experiment in a line: Western blot detection of HIF stabilization in HeLa, A549 and Hep3B cells. The following applies: for induction threshold of detectable HIF: 2 h exposure. Format: cell-based, human. The method, then:
A549 and HeLa carcinoma cell lines (American Type Culture Collection) were cultured in DMEM/F-12 (Gibco), and Hep3B cells in RPMI medium, both supplemented with antibiotics, L-glutamine and 10% fetal calf serum. A549 cells stably transfected with the HIF-RE2-luc HIF reporter construct (constructed in pGL3, Promega GmbH) were seeded on 384-well plates (Greiner) at a density of 2500 cells/well in a volume of 25 µl complete cell culture medium, and re-incubated for 16–24 h before the test. Test compounds were added at appropriate dilutions in a volume of 10 µl, and cells were re-incubated for 6 h before measurement. Luciferase activity was determined in a luminometer after addition of cell lysis/luciferase buffer. Cell line identities were verified by STR DNA typing (DSMZ GmbH).
For western blot analysis, cell lysates were separated on 4–12% SDS polyacrylamide gradient gels (Invitrogen). Proteins were blotted onto polyvinylidene difluoride (PVDF) membranes (Amersham Biosciences). HIF-1α protein was detected using a HIF-1α specific monoclonal antibody (BD Transduction Laboratories) at a dilution of 1∶250. HIF-2α protein was detected using a HIF-2α specific polyclonal antibody (Novus Biologicals) at a dilution of 1∶1000. Anti-β-actin antibody served as a loading control. […] Novex Sharp Pre-stained Protein Standard (Invitrogen) was used as molecular weight marker.
It was further explored whether inhibition of HIF-PHs would result in the stabilization of HIFs. Exposure of three different human cell lines (HeLa, A549, and Hep3B) to concentrations of BAY 85-3934 up to 10 µM for 2 h led to dose-dependent increases in both HIF-1α and HIF-2α. Within the individual cell lines, there was no difference between the HIF isoforms with regard to the threshold concentration of BAY 85-3934 that was necessary for the induction of detectable amounts of HIF. […] Exposure of HeLa cells to 5 µM BAY 85-3934 for 20 min was sufficient to induce detectable concentrations of HIF-1α (Fig. 1E). After exposure of A549 cells to 20 µM BAY 85-3934 for 120 min, with subsequent withdrawal of the culture medium and replacement with medium containing 100 µM cycloheximide (an inhibitor of protein synthesis), induction of HIF-1α was no longer detectable after 30 min (Fig. 1F). Therefore, it can be ruled out that disappearance of HIF-1α was the result of de novo synthesis of […].

For data set [1], the system named is male Wistar rats. The experiment in a line: 26-day repeat-dose experiment, packed cell volume. The method, then: Male Wistar rats (240–340 g in body weight) were housed with five animals per cage for at least 1 week before experimentation. Blood samples from rats were collected under anesthesia (2% isoflurane in air) by puncturing the retro-orbital vein plexus with a glass capillary. In a repeat-dose, 26-day experiment, animals were administered vehicle or BAY 85-3934 at doses of 0.5 mg/kg, 1.25 mg/kg, 2.5 mg/kg, and 5 mg/kg. PCV was determined at baseline and at weekly intervals after centrifugation in a hematocrit capillary tube (Brand) for 10 min at full speed in a Haemofuge centrifuge (Heraeus). The number of reticulocytes in 5 µl blood was counted after staining with thiazol orange (Becton Dickinson) according to the manufacturer’s instructions by FACS analysis on a BD FACSCalibur system (Becton Dickinson). The efficacy of BAY 85-3934 (2.5 mg/kg, once-daily, oral) was also compared with that of rhEPO (25 IU/kg, 50 IU/kg, and 100 IU/kg, twice-weekly, s.c. injection). The time-course of induction of EPO mRNA expression and plasma EPO was determined at baseline and 0.5 h, 1 h, 2 h, 4 h, 6 h, and 8 h after oral administration of a single dose of BAY 85-3934 (5 mg/kg).

The test system of data set [2] is male Wistar rats. The experiment in a line: Comparison of oral BAY 85-3934 with rhEPO on erythropoiesis. Format: in vivo, rat.
Procedure: Male Wistar rats (240–340 g in body weight) were housed with five animals per cage for at least 1 week before experimentation. Blood samples from rats were collected under anesthesia (2% isoflurane in air) by puncturing the retro-orbital vein plexus with a glass capillary. In a repeat-dose, 26-day experiment, animals were administered vehicle or BAY 85-3934 at doses of 0.5 mg/kg, 1.25 mg/kg, 2.5 mg/kg, and 5 mg/kg. PCV was determined at baseline and at weekly intervals after centrifugation in a hematocrit capillary tube (Brand) for 10 min at full speed in a Haemofuge centrifuge (Heraeus). The number of reticulocytes in 5 µl blood was counted after staining with thiazol orange (Becton Dickinson) according to the manufacturer’s instructions by FACS analysis on a BD FACSCalibur system (Becton Dickinson). The efficacy of BAY 85-3934 (2.5 mg/kg, once-daily, oral) was also compared with that of rhEPO (25 IU/kg, 50 IU/kg, and 100 IU/kg, twice-weekly, s.c. injection). […] The efficacy of oral treatment with BAY 85-3934 was compared with that of standard rhEPO treatment in male Wistar rats.
The test system of data set [3] is matrix metalloproteinases and other peptidases. The data set is described as follows: Activity against related enzymes (n = 8). Format: biochemical. The following applies: 10 µM, n = 8 enzymes, data not shown. The method, then: (§1) The selectivity of BAY 85-3934 was examined via a broad panel of radio-ligand binding assays (n = 67), and by examining the activity of BAY 85-3934 against related enzymes (matrix metalloproteinases and other peptidases, n = 8). At a concentration of 10 µM, no significant (> 50%) activity in any of these assays was detected (data not shown).

The test system of data set [4] is rats and cynomolgus monkeys. The data set is described as follows: Adverse events in all animal experiments reported. It counts as in vivo. As to conditions: all of the experiments reported. As to the method:
All procedures conformed to national legislation (dt. Tierschutzgesetz v. 18.05.2006) and EU directives (86/609) for the use of animals for scientific purposes and were approved by the institutional animal care office of Bayer AG and by the competent regional authority (LANUV Recklinghausen). All surgical procedures were performed under deep anesthesia (2% isoflurane) with immediate post-operative analgesia (ketamine/carprofen), and all efforts were made to minimize suffering. Rats were sacrificed by exposure to 10% isoflurane and consecutive cervical dislocation. Standard laboratory diet and tap water were available ad libitum. Rats were provided with wood sticks for chewing and gnawing, and monkeys were provided with appropriate toys such as balls and climbing bars. Animals were housed in temperature- and humidity-controlled cages with a 12 h light/dark cycle. In each experiment, the number of animals used was minimized. Animals were either randomly assigned to experimental groups or, if appropriate, were assigned based on hematocrit levels.

Data set [5] deals with male Wistar rats. The experiment in a line: Subtotal nephrectomy (remnant kidney) model. The following applies: same dose for 3 days, data not shown. It counts as in vivo, rat.
The test system of data set [6] is broad panel of radio-ligand binding assays. The experiment in a line: Broad panel of radio-ligand binding assays (n = 67). The following applies: 10 µM, n = 67 assays, data not shown. The method, then:
as §1

Molecules are shown by their SMILES.

On to `O=c1c(-n2ccnn2)c[nH]n1-c1cc(N2CCOCC2)ncn1` [BAY 85-3934, 2-[6-(morpholin-4-yl)pyrimidin-4-yl]-4-(1H-1,2,3-triazol-1-yl)-1,2-dihydro-3H-pyrazol-3-one], for which the “induction threshold of detectable HIF” value is reported as 2.5 µM in the data set on HIF-1α and HIF-2α (A549 cells); 0.25 µM with HIF-1α and HIF-2α (HeLa cells); 0.5 µM in the data set on HIF-1α and HIF-2α (Hep3B cells). The “induction threshold of HIF (summary in discussion)” value with HIF-1α and HIF-2α (human cell lines) is listed as “below 1 µM”. Besides, the “gain in mean PCV” value with male Wistar rats [1] (1.25 mg/kg once daily, by day 26) is given as “approximately 3%”. Besides, the “mean PCV gain from baseline” value in the data set on male Wistar rats [1] (5 mg/kg once daily, 26 days) was 17%. Further, in the data set on male Wistar rats [1] (0.5–5 mg/kg, 26 days), the tolerability result was “well tolerated”. Further, the “dose from which mean PCV is significantly elevated versus vehicle” value in the data set on male Wistar rats [1] (once daily oral, 26 days) is reported as not below 1.25 mg/kg. The “equivalence of dose for gains in hematocrit and hemoglobin” value in the data set on male Wistar rats [2] (BAY 85-3934 2.5 mg/kg once daily) is reported as “equivalent to a twice-weekly dose of rhEPO (100 IU/kg)”. Also, the “hematocrit compared with the control group” value with male Wistar rats [2] (BAY 85-3934 2.5 mg/kg once daily oral, rhEPO 25, 50, 100 IU/kg twice weekly s.c., p<0.001 at day 30) is “significant increase”. Further, in data set [3], the “activity against related enzymes” value is recorded as not above 50%. Besides, the “adverse events related to treatment” value in data set [4] is on record as “no significant adverse events”. The “blood pressure in normotensive rats” value in the data set with male Wistar rats [5] was “did not affect blood pressure”. Further, the “activity in radio-ligand binding assays” value in data set [6] is recorded as not above 50%.

These data come from publication PMC4230943, “Mimicking Hypoxia to Treat Anemia: HIF-Stabilizer BAY 85-3934 (Molidustat) Stimulates Erythropoietin Production without Hypertensive Effects” (PLoS ONE, 2014).
